The target in one assay is Alpha-glucosidase MAL12 (Saccharomyces cerevisiae S288c, UniProt P53341). In words: Inhibition of yeast alpha-glucosidase MAL12 using 4-nitrophenyl-alpha-D-glucopyranoside as substrate preincubated for 30 mins followed by substrate addition measured after 10 mins by microplate reader analysis.
Assay [1] deals with Alpha-glucosidase MAL12 (Saccharomyces cerevisiae S288c) (UniProt P53341). In words: Inhibition of yeast alpha-glucosidase MAL12 at 5 mM using 4-nitrophenyl-alpha-D-glucopyranoside as substrate preincubated for 30 mins followed by substrate addition measured after 10 mins by microplate reader analysis.
Assay [2] concerns the target T1, Pancreatic alpha-amylase (Homo sapiens) (UniProt P04746).
T1 sequence (whole entry): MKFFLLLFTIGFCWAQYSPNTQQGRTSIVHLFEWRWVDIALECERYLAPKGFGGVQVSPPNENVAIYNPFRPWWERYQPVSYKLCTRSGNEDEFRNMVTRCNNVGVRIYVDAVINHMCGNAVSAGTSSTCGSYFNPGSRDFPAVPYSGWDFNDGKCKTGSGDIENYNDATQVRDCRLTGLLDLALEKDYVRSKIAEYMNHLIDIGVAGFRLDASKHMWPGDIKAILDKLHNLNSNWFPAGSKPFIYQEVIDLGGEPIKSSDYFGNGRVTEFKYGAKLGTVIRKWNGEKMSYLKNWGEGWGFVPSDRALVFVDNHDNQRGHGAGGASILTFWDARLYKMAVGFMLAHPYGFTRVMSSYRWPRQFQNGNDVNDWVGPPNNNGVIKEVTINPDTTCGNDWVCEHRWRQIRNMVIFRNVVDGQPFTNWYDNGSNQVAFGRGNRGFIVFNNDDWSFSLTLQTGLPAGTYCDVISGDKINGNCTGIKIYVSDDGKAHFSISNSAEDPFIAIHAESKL
In words: Inhibition of pancreatic alpha-amylase (unknown origin) at 5 mM using starch as substrate preincubated for 30 mins followed by substrate addition measured after 10 mins by dinitrosalicylic acid method based microplate reader analysis.

Drawing on ChEMBL document CHEMBL3826904, “Ionic liquid-promoted multicomponent synthesis of fused tetrazolo[1,5-a]pyrimidines as α-glucosidase inhibitors” (Bioorg Med Chem Lett, 2016), this text covers IC50 and inhibition for twelve compounds.

Structures are written as SMILES. Active and inactive are the calls of the source. The calls are words filed in the database; no cut-off is given here.

Alpha-glucosidase MAL12 (Saccharomyces cerevisiae S288c), sequence (P53341 whole entry): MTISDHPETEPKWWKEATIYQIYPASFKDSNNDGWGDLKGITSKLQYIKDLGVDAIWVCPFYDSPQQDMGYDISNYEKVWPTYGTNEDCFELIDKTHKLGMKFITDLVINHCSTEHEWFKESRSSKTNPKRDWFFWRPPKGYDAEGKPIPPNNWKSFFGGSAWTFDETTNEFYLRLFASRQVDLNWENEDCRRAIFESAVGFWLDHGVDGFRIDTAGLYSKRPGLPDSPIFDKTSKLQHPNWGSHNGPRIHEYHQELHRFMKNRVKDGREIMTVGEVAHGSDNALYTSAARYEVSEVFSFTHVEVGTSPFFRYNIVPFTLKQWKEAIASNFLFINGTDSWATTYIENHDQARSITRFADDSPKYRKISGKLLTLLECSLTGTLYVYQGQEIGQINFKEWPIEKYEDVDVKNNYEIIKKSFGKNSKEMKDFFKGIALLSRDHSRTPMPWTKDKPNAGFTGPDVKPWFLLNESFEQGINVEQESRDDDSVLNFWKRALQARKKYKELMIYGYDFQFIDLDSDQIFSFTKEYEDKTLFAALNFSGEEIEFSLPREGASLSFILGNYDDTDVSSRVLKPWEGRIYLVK
Alpha-glucosidase MAL12, sequence (P53341 whole entry): as above

As to `c1ccc(-c2ccnc3nnnn23)nc1`, at Alpha-glucosidase MAL12, the IC50 (as a rule, the concentration that inhibits the measured activity by half) was 591 µM. For the same compound, the inhibition entry in assay [1] was “Active”. Also, the inhibition result in assay [2] is “inactive”.

As to `Brc1ccc(-c2ccnc3nnnn23)cc1`, the inhibition result in assay [1] is “Active”. Further, the inhibition entry in assay [2] is “inactive”.

In the case of `Clc1ccc(-c2ccnc3nnnn23)cc1`, the IC50 on Alpha-glucosidase MAL12 was 421 µM. The inhibition entry in assay [1] was “Active”. Further, the inhibition entry in assay [2] is “inactive”.

On to `O=c1oc2ccccc2cc1-c1ccnc2nnnn12`, for which the IC50 against Alpha-glucosidase MAL12 came to 446 µM. Further, the inhibition entry in assay [1] is “Active”. The inhibition result in assay [2] is “inactive”.

As for `c1ccc2oc(-c3ccnc4nnnn34)cc2c1`, in assay [1], the inhibition entry is “Active”. For the same compound, the inhibition result in assay [2] was “inactive”.

Take `Cc1ccc(-c2ccnc3nnnn23)cc1`: the half-maximal inhibitory concentration (IC50) against Alpha-glucosidase MAL12 was determined as 49.8 µM. In assay [1], the inhibition entry was “Active”. Moreover, the inhibition result in assay [2] is “inactive”.

In turn, `Fc1ccc(-c2ccnc3nnnn23)cc1` returned an IC50 on Alpha-glucosidase MAL12 of 178 µM. The inhibition entry in assay [1] was “Active”. Moreover, the inhibition entry in assay [2] was “inactive”.

For the compound `c1ccc(-c2ccnc3nnnn23)cc1`, the 50% inhibitory concentration (IC50) at Alpha-glucosidase MAL12 is 422 µM. Moreover, the inhibition result in assay [1] is “Active”. Further, the inhibition result in assay [2] is “inactive”.

Regarding `COc1ccc(-c2ccnc3nnnn23)cc1`, the IC50 at Alpha-glucosidase MAL12 is 85.7 µM. The inhibition result in assay [1] is “Active”. In assay [2], the inhibition result was “inactive”.

For `O=[N+]([O-])c1ccc(-c2ccnc3nnnn23)cc1`, the IC50 against Alpha-glucosidase MAL12 was found to be 308 µM. Besides, the inhibition entry in assay [1] is “Active”. Also, the inhibition entry in assay [2] is “inactive”.

`c1csc(-c2ccnc3nnnn23)c1`: the IC50 against Alpha-glucosidase MAL12 was 1010 µM. Besides, in assay [1], the inhibition entry is “Active”. Moreover, the inhibition entry in assay [2] was “inactive”.

As for `Oc1ccccc1-c1ccnc2nnnn12`, the IC50 against Alpha-glucosidase MAL12 is 1740 µM. In addition, the inhibition result in assay [1] is “Active”. Further, the inhibition entry in assay [2] is “inactive”.
